Counter-ions that a name gives are not always drawn.
Assays:
[1] = biological target: 5-hydroxytryptamine receptor 6 (Mus musculus, UniProt Q9R1C8)
[2] = biological target: 5-hydroxytryptamine receptor 6 (Rattus norvegicus, UniProt P31388)
[3] = biological target: 5-hydroxytryptamine receptor 6 (Homo sapiens, UniProt P50406)
Chain of 5-hydroxytryptamine receptor 6 (Homo sapiens, UniProt P50406) (P50406 whole entry): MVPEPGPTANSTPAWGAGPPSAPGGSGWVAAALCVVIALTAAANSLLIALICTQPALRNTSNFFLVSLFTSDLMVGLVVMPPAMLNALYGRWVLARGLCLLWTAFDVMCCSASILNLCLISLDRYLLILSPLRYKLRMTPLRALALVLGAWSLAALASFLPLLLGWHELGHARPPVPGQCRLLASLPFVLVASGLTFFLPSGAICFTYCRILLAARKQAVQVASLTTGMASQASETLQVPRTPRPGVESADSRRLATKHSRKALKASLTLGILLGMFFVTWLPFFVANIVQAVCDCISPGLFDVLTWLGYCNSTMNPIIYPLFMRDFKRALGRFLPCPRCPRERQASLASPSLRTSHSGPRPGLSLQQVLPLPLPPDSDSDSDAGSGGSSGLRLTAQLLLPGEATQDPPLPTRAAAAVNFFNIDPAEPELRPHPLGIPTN

Chain of 5-hydroxytryptamine receptor 6 (Mus musculus, UniProt Q9R1C8) (Q9R1C8 whole entry): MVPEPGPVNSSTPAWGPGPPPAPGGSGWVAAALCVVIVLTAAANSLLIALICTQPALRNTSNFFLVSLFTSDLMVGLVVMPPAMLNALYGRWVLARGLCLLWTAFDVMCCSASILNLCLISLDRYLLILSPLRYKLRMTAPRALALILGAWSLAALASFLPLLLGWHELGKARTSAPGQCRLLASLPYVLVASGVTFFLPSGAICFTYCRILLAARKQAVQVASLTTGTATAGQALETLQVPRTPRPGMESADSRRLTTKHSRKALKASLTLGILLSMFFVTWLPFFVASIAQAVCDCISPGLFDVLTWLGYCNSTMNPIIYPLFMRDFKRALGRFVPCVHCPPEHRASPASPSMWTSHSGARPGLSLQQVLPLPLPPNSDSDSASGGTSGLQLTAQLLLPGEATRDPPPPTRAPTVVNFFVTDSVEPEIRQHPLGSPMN
Chain of 5-hydroxytryptamine receptor 6 (Rattus norvegicus, UniProt P31388) (P31388 whole entry): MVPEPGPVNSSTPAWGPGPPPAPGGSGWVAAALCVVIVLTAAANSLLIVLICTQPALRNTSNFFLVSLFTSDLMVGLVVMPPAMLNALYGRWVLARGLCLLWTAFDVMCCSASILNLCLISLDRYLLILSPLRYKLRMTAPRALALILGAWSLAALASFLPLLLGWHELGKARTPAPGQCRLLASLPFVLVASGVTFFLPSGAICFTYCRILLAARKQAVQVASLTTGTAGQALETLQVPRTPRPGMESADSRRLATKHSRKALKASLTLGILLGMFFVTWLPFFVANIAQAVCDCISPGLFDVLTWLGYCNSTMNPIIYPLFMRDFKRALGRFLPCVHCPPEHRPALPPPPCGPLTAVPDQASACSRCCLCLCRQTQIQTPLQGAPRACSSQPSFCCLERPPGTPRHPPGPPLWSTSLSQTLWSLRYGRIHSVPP

| Structure (SMILES) | Ki [1] | Ki [2] | Ki [3] |
| --- | --- | --- | --- |
| COc1ccc(NS(=O)(=O)c2ccc(I)cc2)cc1N1CCN(C)CC1 [SB-258585] | 11.2 nM | 2.29 nM |  |
| COc1ccc2[nH]cc(CCN)c2c1 [tryptamine, 5-Methoxy] |  | 22.4 nM |  |
| NCCc1c[nH]c2ccc(O)cc12 [[3H]-5-HT] | 95.5 nM | 79.4 nM |  |
| CN1CCN(C2=c3ccccc3=Nc3ccc(Cl)cc3N2)CC1 [6-chloro-10-(4-methylpiperazin-1-yl)-2,9-diazatricyclo[9.4.0.0^{3,8}]pentadeca-1,3(8),4,6,10,12,14-heptaene] | 6.46 nM |  |  |
| COc1ccc(NS(=O)(=O)c2sc3ccc(Cl)cc3c2C)cc1N1CCNCC1 | 1.23 nM | 0.71 nM |  |
| CN1CCN2c3ccccc3Cc3ccccc3C2C1 (stereo not drawn) [MIANSERIN HYDROCHLORIDE] | 3.24 nM |  |  |
| CNS(=O)(=O)Cc1ccc2[nH]cc(CCN(C)C)c2c1 [Sumax] | 5620 nM | > 10000 nM | > 10000 nM |
| COc1ccc(S(=O)(=O)Nc2cc(Br)cc(F)c2Br)cc1N1CCNCC1 [N-(2,5-dibromo-3-fluorophenyl)-4-methoxy-3-(piperazin-1-yl)benzenesulfonamide] | 61.7 nM | 1.41 nM |  |
| CCN(CC)C(=O)C1C=C2c3cccc4[nH]cc(c34)CC2N(C)C1 (stereo not drawn) [NSC_3981] | 2.82 nM | 2.63 nM |  |
| CNc1cc(NS(=O)(=O)c2ccc(N)cc2)nc(NC)n1 [Ro-04-6790] | > 10000 nM | 28.8 nM | 51.3 nM |
| CSc1ccc2c(c1)C(N1CCN(C)CC1)Cc1ccccc1S2 (stereo not drawn) [methanesulfonic acid;1-methyl-4-(3-methylsulfanyl-5,6-dihydrobenzo[b][1]benzothiepin-5-yl)piperazine] | 0.56 nM |  |  |
| COc1ccc(NS(=O)(=O)c2sc3ccc(Cl)cc3c2C)cc1N1CCN(C)CC1 [SB-258510] | 1 nM | 0.76 nM |  |
| CN(C)CCC=C1c2ccccc2CCc2ccccc21 | 89.1 nM | 182 nM | 141 nM |
| COc1ccc(NS(=O)(=O)c2ccc(Br)cc2)cc1N1CCN(C)CC1 | 22.9 nM | 4.79 nM | 2.82 nM |

Source: BindingDB's records for doi:10.1124/mol.64.6.1295 (Glaxosmithkline, 2003)
